Data published in patent US12043632B2, “6-heteroaryloxy benzimidazoles and azabenzimidazoles as JAK2 inhibitors” (Ajax Therapeutics, Inc., priority 2020, dated 2024).

Target: T1, JAK2 (JH1domain-catalytic, Y1007F,Y1008F) kinase (Homo sapiens, UniProt O60674, Y1007F/Y1008F)
T1 construct: JAK2 (JH1domain-catalytic, Y1007F,Y1008F) kinase was expressed as N-terminal fusion; made in house; host or cells: transiently transfected HEK293 cells
Test: JAK2 JH1 Domain Binding Assay
Conditions: qPCR readout

T1 sequence (O60674 849-1124 Y1007F/Y1008F limits assumed): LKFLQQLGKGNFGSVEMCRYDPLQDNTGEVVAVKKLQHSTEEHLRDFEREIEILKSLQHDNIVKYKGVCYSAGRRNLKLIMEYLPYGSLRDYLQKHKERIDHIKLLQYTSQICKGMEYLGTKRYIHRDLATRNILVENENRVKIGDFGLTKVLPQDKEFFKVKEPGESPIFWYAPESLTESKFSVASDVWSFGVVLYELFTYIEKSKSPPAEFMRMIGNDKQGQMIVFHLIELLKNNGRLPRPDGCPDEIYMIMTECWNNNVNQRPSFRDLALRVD

| Kd [µM] | Structure (SMILES) |
| --- | --- |
| 0.01 to 0.05 | Cn1cc(C(F)(F)F)cc(Nc2nc3ncc(Oc4cnc5[nH]cc(F)c5c4)c(C#N)c3n2C)c1=O [Example I-289, 6-((3-fluoro-1H-pyrrolo[2,3-b]pyridin-5-yl)oxy)-1-methyl-2-((1-methyl-2-oxo-5-(trifluoromethyl)-1,2-dihydropyridin-3-yl)amino)-1H-imidazo[4,5-b]pyridine-7-carbonitrile] |
| 0.01 to 0.05 | Cc1cc2cc(Oc3cnc4nc(Nc5cc(C(F)(F)F)cn(C)c5=O)n(C)c4c3C#N)cnc2[nH]1 [Example I-290, 1-methyl-6-((2-methyl-1H-pyrrolo[2,3-b]pyridin-5-yl)oxy)-2-((1-methyl-2-oxo-5-(trifluoromethyl)-1,2-dihydropyridin-3-yl)amino)-1H-imidazo[4,5-b]pyridine-7-carbonitrile] |
| < 0.01 | COc1ccc2c(Oc3cnc4nc(Nc5cc(C(F)(F)F)cn(C)c5=O)n(C)c4c3C#N)cnn2c1 [Example I-291, 6-((6-methoxypyrazolo[1,5-a]pyridin-3-yl)oxy)-1-methyl-2-((1-methyl-2-oxo-5-(trifluoromethyl)-1,2-dihydropyridin-3-yl)amino)-1H-imidazo[4,5-b]pyridine-7-carbonitrile] |
| < 0.01 | Cn1cc(C(F)(F)F)cc(Nc2nc3ncc(Oc4cnn5cc(C#N)ccc45)c(Cl)c3n2C)c1=O [Example I-292, 3-((7-chloro-1-methyl-2-((1-methyl-2-oxo-5-(trifluoromethyl)-1,2-dihydropyridin-3-yl)amino)-1H-imidazo[4,5-b]pyridin-6-yl)oxy)pyrazolo[1,5-a]pyridine-6-carbonitrile] |
| 0.01 to 0.05 | Cc1cc2cc(Oc3cnc4nc(Nc5cc(C(F)(F)F)cn(C)c5=O)n(C)c4c3Cl)cnc2[nH]1 [Example I-293, 3-((7-chloro-1-methyl-6-((2-methyl-1H-pyrrolo[2,3-b]pyridin-5-yl)oxy)-1H-imidazo[4,5-b]pyridin-2-yl)amino)-1-methyl-5-(trifluoromethyl)pyridin-2(1H)-one] |
| 0.01 to 0.05 | Cn1cc(C(F)(F)F)cc(Nc2nc3ncc(Oc4cnc5[nH]c(C6CC6)cc5c4)c(C#N)c3n2C)c1=O [Example I-296, 6-((2-cyclopropyl-1H-pyrrolo[2,3-b]pyridin-5-yl)oxy)-1-methyl-2-((1-methyl-2-oxo-5-(trifluoromethyl)-1,2-dihydropyridin-3-yl)amino)-1H-imidazo[4,5-b]pyridine-7-carbonitrile] |
| < 0.01 | Cn1c(Nc2cc(C(F)(F)F)cn([C@H]3C[C@H](O)C3)c2=O)nc2ncc(Oc3cnn4cccc(F)c34)c(C#N)c21 [Example I-297, trans-6-((4-fluoropyrazolo[1,5-a]pyridin-3-yl)oxy)-2-((1-(3-hydroxycyclobutyl)-2-oxo-5-(trifluoromethyl)-1,2-dihydropyridin-3-yl)amino)-1-methyl-1H-imidazo[4,5-b]pyridine-7-carbonitrile] |
| < 0.01 | Cn1c(Nc2ccc(CN3CCCOCC3)c(C(F)(F)F)c2)nc2ncc(Oc3cnn4ccncc34)c(Cl)c21 [Example I-298, N-(4-((1,4-oxazepan-4-yl)methyl)-3-(trifluoromethyl)phenyl)-7-chloro-1-methyl-6-(pyrazolo[1,5-a]pyrazin-3-yloxy)-1H-imidazo[4,5-b]pyridin-2-amine] |
| < 0.01 | COc1n[nH]c2ncc(Oc3cnc4nc(Nc5cc(C(F)(F)F)cn(C)c5=O)n(C)c4c3C#N)cc12 [Example I-299, 6-((3-methoxy-1H-pyrazolo[3,4-b]pyridin-5-yl)oxy)-1-methyl-2-((1-methyl-2-oxo-5-(trifluoromethyl)-1,2-dihydropyridin-3-yl)amino)-1H-imidazo[4,5-b]pyridine-7-carbonitrile] |
| 0.01 to 0.05 | CNc1ccc2c(Oc3cnc4nc(Nc5cc(C(F)(F)F)cn(C)c5=O)n(C)c4c3C#N)cnn2c1 [Example I-302, 1-methyl-2-((1-methyl-2-oxo-5-(trifluoromethyl)-1,2-dihydropyridin-3-yl)amino)-6-((6-(methylamino)pyrazolo[1,5-a]pyridin-3-yl)oxy)-1H-imidazo[4,5-b]pyridine-7-carbonitrile] |
| 0.05 to 1 | CNc1cn2ncc(Oc3cnc4nc(Nc5cc(C(F)(F)F)n(C6CC7(COC7)C6)n5)n(C)c4c3Cl)c2cn1 [Example I-310, N-(1-(2-oxaspiro[3.3]heptan-6-yl)-5-(trifluoromethyl)-1H-pyrazol-3-yl)-7-chloro-1-methyl-6-((6-(methylamino)pyrazolo[1,5-a]pyrazin-3-yl)oxy)-1H-imidazo[4,5-b]pyridin-2-amine] |
| < 0.01 | CNc1cn2ncc(Oc3cnc4nc(Nc5cc(C(F)(F)F)cn(C(C)C)c5=O)n(C)c4c3Cl)c2cn1 [Example I-313, 3-((7-chloro-1-methyl-6-((6-(methylamino)pyrazolo[1,5-a]pyrazin-3-yl)oxy)-1H-imidazo[4,5-b]pyridin-2-yl)amino)-1-isopropyl-5-(trifluoromethyl)pyridin-2(1H)-one] |

Further lines, the compound ahead of its results:

| Structure (SMILES) | Kd [µM] |
| --- | --- |
| Cn1cc(C(F)(F)F)cc(Nc2nc3ncc(Oc4cnc5[nH]c(C6CC6)cc5c4)c(Cl)c3n2C)c1=O [Example I-294, 3-((7-chloro-6-((2-cyclopropyl-1H-pyrrolo[2,3-b]pyridin-5-yl)oxy)-1-methyl-1H-imidazo[4,5-b]pyridin-2-yl)amino)-1-methyl-5-(trifluoromethyl)pyridin-2(1H)-one] | 0.01 to 0.05 |
| Cn1c(Nc2cc(C(F)(F)F)cn([C@H]3C[C@H](O)C3)c2=O)nc2ncc(Oc3cnn4cccc(F)c34)c(Cl)c21 [Example I-295, trans-3-((7-chloro-6-((4-fluoropyrazolo[1,5-a]pyridin-3-yl)oxy)-1-methyl-1H-imidazo[4,5-b]pyridin-2-yl)amino)-1-(3-hydroxycyclobutyl)-5-(trifluoromethyl)pyridin-2(1H)-one] | 0.01 to 0.05 |
| Cn1cc(C(F)(F)F)cc(Nc2nc3ncc(Oc4cnc5[nH]cc(C#N)c5c4)c(C#N)c3n2C)c1=O [Example I-300, 6-((3-cyano-1H-pyrrolo[2,3-b]pyridin-5-yl)oxy)-1-methyl-2-((1-methyl-2-oxo-5-(trifluoromethyl)-1,2-dihydropyridin-3-yl)amino)-1H-imidazo[4,5-b]pyridine-7-carbonitrile] | 0.05 to 1 |
| CCN1CCCN(Cc2ccc(Nc3nc4ncc(Oc5cnn6ccncc56)c(Cl)c4n3C)cc2C(F)(F)F)CC1 [Example I-301, 7-chloro-N-(4-((4-ethyl-1,4-diazepan-1-yl)methyl)-3-(trifluoromethyl)phenyl)-1-methyl-6-(pyrazolo[1,5-a]pyrazin-3-yloxy)-1H-imidazo[4,5-b]pyridin-2-amine] | < 0.01 |
| CNc1ccc2c(Oc3cnc4nc(Nc5cc(C(F)(F)F)cn(C)c5=O)n(C)c4c3Cl)cnn2c1 [Example I-303, 3-((7-chloro-1-methyl-6-((6-(methylamino)pyrazolo[1,5-a]pyridin-3-yl)oxy)-1H-imidazo[4,5-b]pyridin-2-yl)amino)-1-methyl-5-(trifluoromethyl)pyridin-2(1H)-one] | < 0.01 |
| CNc1cn2ncc(Oc3cnc4nc(Nc5cc(C(F)(F)F)cn(C)c5=O)n(C)c4c3Cl)c2cn1 [Example I-304, 3-((7-chloro-1-methyl-6-((6-(methylamino)pyrazolo[1,5-a]pyrazin-3-yl)oxy)-1H-imidazo[4,5-b]pyridin-2-yl)amino)-1-methyl-5-(trifluoromethyl)pyridin-2(1H)-one] | < 0.01 |
| CNc1cn2ncc(Oc3cnc4nc(Nc5cc(CN6CC[C@H](OC)C6)cc(C(F)(F)F)c5)n(C)c4c3Cl)c2cn1 [Example I-307, (S)-7-chloro-N-(3-((3-methoxypyrrolidin-1-yl)methyl)-5-(trifluoromethyl)phenyl)-1-methyl-6-((6-(methylamino)pyrazolo[1,5-a]pyrazin-3-yl)oxy)-1H-imidazo[4,5-b]pyridin-2-amine] | 0.05 to 1 |
| CNc1cn2ncc(Oc3cnc4nc(Nc5cc(CN6CC[C@@H](OC)C6)cc(C(F)(F)F)c5)n(C)c4c3Cl)c2cn1 [Example I-308, (R)-7-chloro-N-(3-((3-methoxypyrrolidin-1-yl)methyl)-5-(trifluoromethyl)phenyl)-1-methyl-6-((6-(methylamino)pyrazolo[1,5-a]pyrazin-3-yl)oxy)-1H-imidazo[4,5-b]pyridin-2-amine] | 0.01 to 0.05 |
| CNc1cn2ncc(Oc3cnc4nc(Nc5nn6c(c5F)COC(C)(C)C6)n(C)c4c3Cl)c2cn1 [Example I-309, N-(7-chloro-1-methyl-6-((6-(methylamino)pyrazolo[1,5-a]pyrazin-3-yl)oxy)-1H-imidazo[4,5-b]pyridin-2-yl)-3-fluoro-6,6-dimethyl-6,7-dihydro-4H-pyrazolo[5,1-c][1,4]oxazin-2-amine] | < 0.01 |
| CNc1cn2ncc(Oc3cnc4nc(Nc5cc6c(c(C(F)(F)F)c5)C(C)(C)N(C)C6=O)n(C)c4c3Cl)c2cn1 [Example I-311, 6-((7-chloro-1-methyl-6-((6-(methylamino)pyrazolo[1,5-a]pyrazin-3-yl)oxy)-1H-imidazo[4,5-b]pyridin-2-yl)amino)-2,3,3-trimethyl-4-(trifluoromethyl)isoindolin-1-one] | 0.01 to 0.05 |
| CNc1cn2ncc(Oc3cnc4nc(Nc5cc(C6CC6)cn(C)c5=O)n(C)c4c3Cl)c2cn1 [Example I-312, 3-((7-chloro-1-methyl-6-((6-(methylamino)pyrazolo[1,5-a]pyrazin-3-yl)oxy)-1H-imidazo[4,5-b]pyridin-2-yl)amino)-5-cyclopropyl-1-methylpyridin-2(1H)-one] | < 0.01 |
| CNc1cn2ncc(Oc3cnc4nc(Nc5cc(O[C@H]6CCN(C)C6)cc(C(F)(F)F)c5)n(C)c4c3Cl)c2cn1 [Example I-314, (S)-7-chloro-1-methyl-6-((6-(methylamino)pyrazolo[1,5-a]pyrazin-3-yl)oxy)-N-(3-((1-methylpyrrolidin-3-yl)oxy)-5-(trifluoromethyl)phenyl)-1H-imidazo[4,5-b]pyridin-2-amine] | < 0.01 |
| CNc1cn2ncc(Oc3cnc4nc(Nc5cc(O[C@@H]6CCN(C)C6)cc(C(F)(F)F)c5)n(C)c4c3Cl)c2cn1 [Example I-315, (R)-7-chloro-1-methyl-6-((6-(methylamino)pyrazolo[1,5-a]pyrazin-3-yl)oxy)-N-(3-((1-methylpyrrolidin-3-yl)oxy)-5-(trifluoromethyl)phenyl)-1H-imidazo[4,5-b]pyridin-2-amine] | < 0.01 |
